Data from patent publication US20240382651A1, “BUPIVACAINE-COLLAGEN DRUG DELIVERY IMPLANT AND METHODS OF MAKING AND USING THEREOF” (INNOCOLL PHARMACEUTICALS LIMITED, priority 2021, published 2024).
Where a name gives a salt, the structure may show the parent alone.

Test: Genotoxicity studies of bupivacaine HCl (4 in vitro, 2 in vivo)
Conditions: 4 in vitro studies and 2 in vivo studies
Excerpt: The distribution, metabolism, and excretion of bupivacaine across species is characterized in the literature including data showing that, following absorption, bupivacaine is rapidly and readily distributed to tissues, with the highest concentrations in highly perfused tissues. In general, the metabolic profile of bupivacaine is similar across species although quantitatively different, with no novel metabolite identified in humans (Goehl, et al., 1973, Carson 2000). The excretion of bupivacaine in monkeys and humans is predominantly in the urine; in rats, excretion in urine and feces is generally similar; and in dogs, only small amounts of excretion of bupivacaine in the urine have been reported.

For `CCCCN1CCCCC1C(=O)Nc1c(C)cccc1C` (stereo not shown) [bupivacaine HCl], the Genotoxicity was “no safety concerns identified”.
